Laboratory results as given in US11014884B2 (Global Blood Therapeutics, Inc., priority 2018, dated 2021).

target: Purified hemoglobin (Homo sapiens, UniProt P69905); assay: Hemoglobin assay: oxygen equilibrium curves with purified hemoglobin, change in p50; assay type: biochemical; settings: purified hemoglobin 25 μM, compound 25 μM, 1 h at 37° C.
Procedure: Hemoglobin assay: Oxygen equilibrium curves (OECs) were collected as described above. Purified hemoglobin (25 μM) was incubated for 1 h at 37° C. with the indicated compounds (30 μM for compounds 6, 7, 8, and 11; 25 μM for compounds 55 to 67 (Enantiomer 1 and Enantiomer 2)) in 5 ml of TES (2-[[1,3-dihydroxy-2-(hydroxymethyl)propan-2-yl]amino]ethanesulfonic acid)/saline buffer prior to measurements. The samples were then oxygenated with compressed air within the Hemox Analyzer and the OECs were collected during deoxygenation as previously described. p50 values were obtained using a non-linear regression analysis, and Δp50(%) was calculated as described above.

Chain of Purified hemoglobin (P69905 2-142 limits assumed): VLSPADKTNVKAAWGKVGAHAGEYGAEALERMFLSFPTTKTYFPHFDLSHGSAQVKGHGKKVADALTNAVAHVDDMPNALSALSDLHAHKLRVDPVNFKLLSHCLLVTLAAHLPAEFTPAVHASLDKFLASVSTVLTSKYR
Chain of Purified hemoglobin (P68871 2-147 partner limits assumed): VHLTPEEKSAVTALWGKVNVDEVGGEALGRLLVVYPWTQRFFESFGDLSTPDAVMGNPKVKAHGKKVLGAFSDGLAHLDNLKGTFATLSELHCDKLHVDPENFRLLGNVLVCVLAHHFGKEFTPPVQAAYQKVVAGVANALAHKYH

| Compound | Delta-p50 (%) |
| --- | --- |
| O=Cc1c(O)cccc1CN1C(=O)CCCC1COc1cccc(O)c1C=O (racemic) [Compound 66, 2-((1-(2-formyl-3-hydroxybenzyl)-6-oxopiperidin-2-yl)methoxy)-6-hydroxybenzaldehyde] | 71 |
| O=Cc1c(O)cccc1OCC1CSCCN1C(=O)c1cccc(O)c1C=O (single isomer, unassigned) [67 (Enantiomer 1), 2-((4-(2-formyl-3-hydroxybenozyl)thiomorpholin-3-yl)methoxy)-6-hydroxybenzaldehyde] | 67.2 |
| O=Cc1c(O)cccc1OCC1CSCCN1C(=O)c1cccc(O)c1C=O (single isomer, unassigned) [67 (Enantiomer 2), 2-((4-(2-formyl-3-hydroxybenzoyl)thiomorpholin-3-yl)methoxy)-6-hydroxybenzaldehyde] | 69.3 |
| CC1(C)CN(C(=O)c2cccc(O)c2C=O)C(COc2cccc(O)c2C=O)CO1 (stereo in doubt) [Compound 64] | 67 |
| O=Cc1ccccc1OC[C@@H]1CCCCN1C(=O)c1cccc(O)c1C=O [Compound 55, (S)-2-(2-((2-formylphenoxy)methyl)piperidine-1-carbonyl)-6-hydroxybenzaldehyde] | 71 |
| O=Cc1ccccc1OC[C@@H]1COCCN1C(=O)c1cccc(O)c1C=O [Compound 56, (S)-2-(3-((2-formylphenoxy)methyl)morpholine-4-carbonyl)-6-hydroxybenzaldehyde] | 70 |
| COc1ccc(C(=O)N2CCCC[C@H]2COc2cccc(O)c2C=O)c(C=O)c1O [Compound 57, (S)-6-(2-((2-formyl-3-hydroxyphenoxy)methyl)piperidine-1-carbonyl)-2-hydroxy-3-methoxybenzaldehyde] | 71 |
| O=Cc1cccc(C(=O)N2CCC[C@@H](COc3cccc(O)c3C=O)C2)c1O [Compound 58] | 71 |
| O=Cc1c(O)cccc1OC[C@H]1CN(C(=O)c2cccc(O)c2C=O)CCO1 [Compound 59, 2-[[(2R)-4-(2-formyl-3-hydroxybenzoyl)morpholin-2-yl]methoxy]-6-hydroxybenzaldehyde] | 71 |
| CC1CN(C(=O)c2cccc(O)c2C=O)C(COc2cccc(O)c2C=O)CO1 (stereo not shown) [Compound 60, 2-((4-(2-formyl-3-hydroxybenzoyl)-6-methylmorpholin-3-yl)methoxy)-6-hydroxybenzaldehyde] | 67 |
| O=Cc1cc(C(=O)N2CCC[C@@H](COc3cccc(O)c3C=O)C2)ccc1O [Compound 61, 2-[[(3R)-1-(3-formyl-4-hydroxybenzoyl)piperidin-3-yl]methoxy]-6-hydroxybenzaldehyde] | 71 |
| O=Cc1c(O)cccc1OC[C@H]1CN(C(=O)c2cccc(O)c2C=O)CCO1 [Compound 62, 2-[[(2R)-4-(2-formyl-3-hydroxybenzoyl)morpholin-2-yl]methoxy]-6-hydroxybenzaldehyde] | 69 |
| O=Cc1c(O)cccc1OC[C@@H]1CCCN(C(=O)Oc2cccc(O)c2C=O)C1 [Compound 63, 2-formyl-3-hydroxyphenyl (3R)-3-(2-formyl-3-hydroxyphenoxymethyl)piperidine-1-carboxylate] | 70 |
| CC1(C)C[C@@H](COc2cccc(O)c2C=O)N(C(=O)c2cccc(O)c2C=O)C1 [Compound 65, 2-[[(2S)-1-(2-formyl-3-hydroxybenzoyl)-4,4-dimethylpyrrolidin-2-yl]methoxy]-6-hydroxybenzaldehyde] | 69 |

same assay, conditions: purified hemoglobin 25 μM, compound 30 μM, 1 h at 37° C.

| Compound | Delta-p50 (%) |
| --- | --- |
| COc1ccc(C=O)cc1-c1ncccc1COc1cccc(O)c1C=O [Compound 6, 3-{3-[(2-formyl-3-hydroxyphenoxy)methyl]pyridin-2-yl}-4-methoxybenzaldehyde] | 60.66 |
| COc1ncc(C=O)cc1-c1ncccc1COc1cccc(O)c1C=O [Compound 7, 3-[(2-formyl-3-hydroxyphenoxy)methyl]-2′-methoxy-[2,3′-bipyridine]-5′-carbaldehyde] | 58.29 |
| O=Cc1cccc(-c2ncccc2COc2cccc(O)c2C=O)c1 [Compound 8, 3-{3-[(2-formyl-3-hydroxyphenoxy)methyl]pyridin-2-yl}benzaldehyde] | 57.3 |
| O=Cc1cc(-c2ncccc2COc2cccc(O)c2C=O)co1 [Compound 11, 4-{3-[(2-formyl-3-hydroxyphenoxy)methyl]pyridin-2-yl}furan-2-carbaldehyde] | 14.12 |

target: T1, hemoglobin (Homo sapiens, UniProt P69905); assay: Whole blood assay: oxygen equilibrium curves (Hemox Analyzer), change in p50; assay type: cell-based; settings: whole blood 20% Hct (1 mM Hb), compound 1 mM, equimolar to hemoglobin, 1 h at 37° C.
T1 construct: from tissue; host or cells: whole blood (red blood cells)
T1 sequence (P69905 2-142 limits assumed): as the sequence (P69905 2-142 limits assumed) above
T1 sequence (P68871 2-147 partner limits assumed): as the sequence (P68871 2-147 partner limits assumed) above
Procedure: Oxygen equilibrium curves (OECs) were collected using a TCS Hemox Analyzer (TCS Scientific Company, New Hope, Pa., USA) to measure changes in the binding affinity of 02 to Hb. Whole blood was incubated for 1 h at 37° C. with the indicated compounds in an equimolar ratio of hemoglobin to compound and diluted into TES (2-[[1,3-dihydroxy-2-(hydroxymethyl)propan-2-yl]amino]ethanesulfonic acid)/saline buffer prior to measurements. For example, for whole blood at 20% hematocrit [Hct], which corresponds to 1 mM Hb, a compound concentration of 1 mM was used (for example, for compounds 1-53), and the incubated sample diluted 50- to 100-fold. The concentration for compound 54 was 1.7 mM and in equimolar ratio to hemoglobin. The diluted samples were then oxygenated with compressed air within the Hemox Analyzer, and the OECs were collected during deoxygenation as previously described (Guarnone et al., Haematologica, 1995, 80, 426-430). p50 (partial pressure of 02 at which Hb is 50% saturated with 02) values were obtained using a non-linear regression analysis. Percentage change in p50 [Δp50(%)] was calculated as follows: Δp50(%)=[(p50 of control)−p50 with compound)/p50 control]×100.

| Compound | Delta-p50 (%) |
| --- | --- |
| COc1ccc(C=O)cc1-c1ncccc1COc1cccc(O)c1C=O [Compound 6, 3-{3-[(2-formyl-3-hydroxyphenoxy)methyl]pyridin-2-yl}-4-methoxybenzaldehyde] | 16.7 |
| COc1ncc(C=O)cc1-c1ncccc1COc1cccc(O)c1C=O [Compound 7, 3-[(2-formyl-3-hydroxyphenoxy)methyl]-2′-methoxy-[2,3′-bipyridine]-5′-carbaldehyde] | 32.5 |
| O=Cc1cccc(-c2ncccc2COc2cccc(O)c2C=O)c1 [Compound 8, 3-{3-[(2-formyl-3-hydroxyphenoxy)methyl]pyridin-2-yl}benzaldehyde] | 44.8 |
| O=Cc1cc(-c2ncccc2COc2cccc(O)c2C=O)co1 [Compound 11, 4-{3-[(2-formyl-3-hydroxyphenoxy)methyl]pyridin-2-yl}furan-2-carbaldehyde] | 17.2 |
| Cc1cccc(C(=O)N2CCCC[C@@H]2COc2cccc(O)c2C=O)c1C=O [Compound 46, 2-[(2R)-2-[(2-formyl-3-hydroxyphenoxy)methyl]piperidine-1-carbonyl]-6-methylbenzaldehyde] | 69 |
| O=Cc1c(O)cccc1OC[C@@H]1CCCCN1C(=O)c1cccc(F)c1C=O [Compound 47, 2-fluoro-6-[(2S)-2-[(2-formyl-3-hydroxyphenoxy)methyl]piperidine-1-carbonyl]benzaldehyde] | 70 |
| COc1cccc(C(=O)N2CCOC[C@H]2COc2cccc(O)c2C=O)c1C=O [Compound 48, 2-[(3S)-3-[(2-formyl-3-hydroxyphenoxy)methyl]morpholine-4-carbonyl]-6-methoxybenzaldehyde] | 70.3 |
| COc1cccc(C(=O)N2CCCC[C@@H]2COc2cccc(O)c2C=O)c1C=O [Compound 49, 2-[(2R)-2-[(2-formyl-3-hydroxyphenoxy)methyl]piperidine-1-carbonyl]-6-methoxybenzaldehyde] | 59 |
| CCOc1cccc(C(=O)N2CCCC[C@@H]2COc2cccc(O)c2C=O)c1C=O [Compound 50, 2-ethoxy-6-[(2R)-2-[(2-formyl-3-hydroxyphenoxy)methyl]piperidine-1-carbonyl]benzaldehyde] | 45.3 |
| O=Cc1c(O)cccc1OC[C@@H]1CCCCN1C(=O)c1cccc(Cl)c1C=O [Compound 51, 2-chloro-6-[(2S)-2-[(2-formyl-3-hydroxyphenoxy)methyl]piperidine-1-carbonyl]benzaldehyde] | 65.5 |
| CCOc1cccc(C(=O)N2CCC[C@H]2COc2cccc(O)c2C=O)c1C=O [Compound 52, 2-ethoxy-6-[(2S)-2-[(2-formyl-3-hydroxyphenoxy)methyl]pyrrolidine-1-carbonyl]benzaldehyde] | 75.5 |
| O=Cc1cnccc1C(=O)N1CCCC[C@H]1COc1cccc(O)c1C=O [Compound 53, 4-[(2S)-2-[(2-formyl-3-hydroxyphenoxy)methyl]piperidine-1-carbonyl]pyridine-3-carbaldehyde] | 71.9 |

same assay, conditions: whole blood, compound 1.7 mM, equimolar to hemoglobin, 1 h at 37° C.

| Compound | Delta-p50 (%) |
| --- | --- |
| CC1(COc2cccc(O)c2C=O)COCCN1C(=O)c1cccc(O)c1C=O (stereo not shown) [Compound 54, 2-((4-(2-formyl-3-hydroxybenzoyl)-3-methylmorpholin-3-yl)methoxy)-6-hydroxybenzaldehyde] | 72.6 |
